Measured values reported in PubChem BioAssay AID2305 (GlaxoSmithKline (GSK), 2010).
Several values for one entry are separate records, joined by “and”; a condition that tells them apart may be missing. Equal values may be shown once.

The molecules below were run on P. falciparum 3D7 growth, pLDH absorbance (assay: P. falciparum 3D7 growth inhibition, dose response, strain 3D7 (AID 2305)).
Work on `CCc1c(C)nc(-n2nc(C)cc2NC(=O)C2c3ccccc3Oc3ccccc32)[nH]c1=O` yielded an IC50 of 950 nM. For `c1cc2nc(CCCc3nc4ccc(C5=N[C@H]6CCCC[C@H]6N5)cc4[nH]3)[nH]c2cc1C1=N[C@@H]2CCCC[C@@H]2N1`, the IC50 was 1240 nM. `CC(C)C[C@H](NC(=O)c1ccc(OCCN2CCOCC2)cc1)C(=O)NC(/C=N/N1CCCC1=O)C(C)C` (stereo partly specified) was tested, and the IC50 was 250 nM. Molecule `N#Cc1cccc(/C=C/C(=O)NC2CCC(CCN3CCc4ccc(-c5cnccn5)cc4CC3)CC2)c1` (stereo unspecified) has an IC50 of 770 nM. With `CCn1cc(C(=O)O)c(=O)c2cc(F)c(N3CCN(S(=O)(=O)c4ccc(N)cc4)CC3)cc21` the IC50 was 920 nM. In the case of `O=C(C1CCCC1)N1CCOC(CCN2CCC(c3ccccc3)CC2)(c2ccc(Cl)c(Cl)c2)C1` (stereo unspecified), the IC50 is reported as 940 nM. `O=C(Nc1ccc(Cl)cc1)c1ccc(CN2CCCN(Cc3ccccc3)CC2)cc1` showed an IC50 of 750 nM. Work on `CCNc1cc(C(=O)N[C@@H](Cc2ccccc2)[C@H](O)CNC(C)(C)CCCC(C)C)c(F)c(N2CCCS2(=O)=O)c1` yielded an IC50 of 200 nM. `CC1(C)CCCN(c2ncc(-c3cccc(CNCc4ccccc4O)c3)cn2)C1` was tested, and the IC50 was 890 nM. In the case of `O=C(Nc1ccc(Cl)c(Cl)c1)N1CCc2cc3nccc(N4CCN5CCC[C@H]5C4)c3cc21`, the IC50 is reported as 630 nM. Molecule `Cc1ccc2c(c1)nc(N)n2C[C@H](O)c1ccccc1` has an IC50 of 580 nM. Work on `O=C(NC1CC1)c1cnc(N2CCC(COc3cccc(F)c3)CC2)c(Cl)c1` yielded an IC50 of 1200 nM. `CC(C)Nc1nc(NC2CCCCC2)nc(N2CCCCCCC2)n1` showed an IC50 of 1090 nM. Molecule `Cn1nc(C(F)(F)F)cc1-c1ccc(C(=O)Nc2ccc3c(c2)CNCC3(C)C)s1` has an IC50 of 1010 nM. `CCn1ccc2c(N3CCCCS3(=O)=O)cc(C(=O)N[C@@H](Cc3ccccc3)[C@H](O)CNC3CCCCC3)cc21` gave an IC50 of 120 nM. `CN(C)c1cccc2c1nc(-c1ccco1)n2CC1CCCN1` (stereo unspecified) showed an IC50 of 970 nM. `O=C(Nc1ccsc1)Nc1cccc(-c2cccc(-c3nc4ccc(C(F)(F)F)cc4[nH]3)c2)c1` showed an IC50 of 150 nM. With `COCCOc1cccc(CN2CCC(c3cc4nc(C)cc(C(F)(F)F)n4n3)C2)c1` (stereo unspecified) the IC50 was 1330 nM. For `Oc1ccc(Nc2ccnc3cc(Cl)ccc23)cc1`, the IC50 was 740 nM. Work on `O=[N+]([O-])c1cccc(C=NNc2ccnc3ccc(C(F)(F)F)cc23)c1` yielded an IC50 of 1090 nM. In the case of `O=C(/C=C/c1ccccc1Cl)NC1CCC(CN2CCC(c3c[nH]c4ccccc34)CC2)CC1` (stereo unspecified), the IC50 is reported as 600 nM and 850 nM. With `CCC1CCCCN1S(=O)(=O)c1ccc(OC)c(N2CCN(C(=O)C(Cl)(Cl)Cl)CC2)c1` (stereo unspecified) the IC50 was 1120 nM. `O=C(Nc1cccc(CN2CCCN(Cc3cccc(F)c3)CC2)c1)c1ccc(Cl)c(Cl)c1` showed an IC50 of 920 nM. For `Cc1oc(-c2ccc(Cl)cc2)cc1C(=O)NCCC1CCN(CCCCCNC(=O)/C=C/c2ccc(Cl)c(Cl)c2)CC1`, the IC50 was 450 nM. `CC(C)(C)c1ccc(CN2CCC(CNC(=O)c3cc(-c4ccccc4C(F)(F)F)cs3)C2)cc1` (stereo unspecified) was tested, and the IC50 was 1240 nM. For `CCc1c(CCNCCCCCCNCCc2ccc([N+](=O)[O-])cc2)ccc(O)c1O`, the IC50 was 780 nM. With `O=C(c1cccc(-c2cccc(-c3nc4ccccc4[nH]3)c2)c1)N1CCCCC1CN1CCC(O)C1` (stereo unspecified) the IC50 was 730 nM. `CN1CCC(N2CCC(Oc3cccc(C(=O)NCCCC4CCCC4)c3)CC2)CC1` showed an IC50 of 840 nM. For `c1ccc(C2CCC(N3CCC(N4CCCC4)CC3)CC2)cc1` (stereo unspecified), the IC50 was 670 nM. With `CCc1c[nH]c2c(N3CCCS3(=O)=O)cc(C(=O)N[C@@H](Cc3ccccc3)[C@H](O)CNC(C)(C)CCCC(C)C)cc12` the IC50 was 670 nM. Molecule `COc1ccc(F)cc1-c1ccc(C(=O)N2CCCN(c3ccc(C(F)(F)F)cn3)CC2)cc1` has an IC50 of 160 nM. With `CS(=O)(=O)CCNCc1cccc(-c2cc3nccc(Nc4ccc(Oc5ccccc5)cc4)c3cc2Cl)c1` the IC50 was 620 nM. `COc1cc2c(c(Cl)c1OC)CCN(Cc1ccccc1)CC2c1ccc(C(N)=O)cc1` (stereo unspecified) showed an IC50 of 850 nM. `O=C(NCC1CCC(C(=O)NCCc2ccc(Cl)c(Cl)c2)CC1)c1ccc(O)c(-c2ccc(Cl)c(Cl)c2)c1` (stereo unspecified) gave an IC50 of 890 nM. With `CCc1ccc(C2CCN(CCCCNC(=O)c3ccc(NC(=O)c4ccc(Cl)cc4)cc3)CC2)c(OCC(=O)OC)c1` the IC50 was 1030 nM. `CNC(=O)c1ccccc1Nc1nc(Nc2ccc(C(=O)O)cc2)ncc1Cl` showed an IC50 of 950 nM. `CCCCN(CCCC)CCCN(CCCN(CCCC)CCCC)c1cc(C)nc(Nc2ccc(Br)cc2)n1` showed an IC50 of 130 nM. Work on `COc1ccc(NC(=O)CCNc2cc(C)nc(NCc3ccccc3C)n2)cc1` yielded an IC50 of 1070 nM. Molecule `COc1ccc(N2CCN(c3nc(Nc4ccc(NC(C)=O)cc4)nc(N4CCCC4)n3)CC2)cc1` has an IC50 of 980 nM. In the case of `COc1ccc(C2C(C(=O)Nc3cc(OC)c(OC)c(OC)c3)c3cc(OC)c(OC)cc3C(=O)N2C)cc1` (stereo unspecified), the IC50 is reported as 800 nM. Work on `CC(C)C[C@@H](C(=O)Nc1ccc(Cc2ccc(NC(=O)[C@H](CC(C)C)N(C)C(=O)OC(C)(C)C)cc2)cc1)N(C)C(=O)OC(C)(C)C` yielded an IC50 of 820 nM. For `O=c1cc(-c2cccc(C(F)(F)F)c2)nc(Nc2ccc(Cl)c(Cl)c2)[nH]1`, the IC50 was 760 nM. `O=C(CSc1nccn1C1CCCC1)Nc1cc(C(F)(F)F)ccc1Cl` was tested, and the IC50 was 380 nM. In the case of `O=C(CCc1ccccc1)NC(c1ccc(Cl)cc1)c1ccc2cccnc2c1O` (stereo unspecified), the IC50 is reported as 850 nM. For `COc1cccc(Nc2nc(C)cc(NC3CCCC3)n2)c1`, the IC50 was 1110 nM. `CCc1cc2c(N)nc(N)nc2nc1-c1ccccc1` gave an IC50 of 950 nM. `COc1ccc2ncc(F)c(NC(=O)C3CCC(NCc4cc5c(F)cccc5[nH]4)CC3)c2n1` (stereo unspecified) was tested, and the IC50 was 1090 nM. `C=CCn1c(=N)n(CC(O)c2ccc(Cl)c(Cl)c2)c2ccccc21` (stereo unspecified) was tested, and the IC50 was 340 nM. Molecule `Cc1cccc2[nH]c(-c3ccc(-c4cccc(NC(=O)c5cnccc5C(F)(F)F)c4)cc3)nc12` has an IC50 of 1000 nM. Molecule `Cc1cc2cc(/C=C/C(=O)NC3CCC(CCN4CCc5ccc(C#N)cc5CC4)CC3)ccc2[nH]1` (stereo unspecified) has an IC50 of 880 nM. `CCC(C)(C)C1CCc2nc(N)nc(N)c2C1` (stereo unspecified) showed an IC50 of 10 nM. Work on `O=C(/C=C/c1ccc(Br)cc1)NCCCCCN1CCC(c2c[nH]c3ccccc23)CC1` yielded an IC50 of 720 nM. Work on `O=C(/C=C/c1ccc(Cl)c(Cl)c1)NC1CCC(N2CCC(c3c[nH]c4ccc(O)cc34)CC2)CC1` (stereo unspecified) yielded an IC50 of 920 nM. With `Cc1nc2ccc([N+](=O)[O-])cc2c(=O)n1OCc1ccccc1` the IC50 was 210 nM. `CCCN(CC)CCOC(=O)c1ccccc1` was tested, and the IC50 was 740 nM. With `CN1CCN(Cc2cccc(-c3ccc4c(Nc5ccc(F)cc5Cl)ccnc4c3)c2)CC1` the IC50 was 160 nM. Work on `Cc1sc2cc(Cl)cc(Cl)c2c1S(=O)(=O)Nc1ccc2nccc(N3CCNCC3)c2c1` yielded an IC50 of 120 nM. With `O=C(CCc1ccc(Cl)cc1Cl)NC1CCC(CN2CCC(c3c[nH]c4ccccc34)CC2)CC1` (stereo unspecified) the IC50 was 900 nM and 220 nM. Molecule `Nc1ncc(-c2ccc(F)c(Cl)c2)c(N)n1` has an IC50 of 1230 nM. `CS(=O)(=O)CCNCc1nc(-c2ccc3c(Nc4ccc(F)c(O)c4)ccnc3c2)cs1` gave an IC50 of 820 nM. `Cc1ccc(/C=C/C(=O)NCCCCCN2CCCN(C(=O)Nc3ccc(Cl)c(Cl)c3)CC2)cc1` showed an IC50 of 940 nM. `CCCCOc1ccc(-n2c(Nc3ccccc3)nc3cc(S(N)(=O)=O)ccc32)cc1` gave an IC50 of 890 nM. Molecule `N#Cc1cccc(NC(=O)Nc2cccc(-c3cccc(-c4nc5ccc(C(F)(F)F)cc5[nH]4)c3)c2)c1` has an IC50 of 220 nM. Molecule `CC(C)(C)c1ccc(-c2cc3c(ccc4nc(N)nc(N)c43)[nH]2)cc1` has an IC50 of 110 nM. With `CCN(CCCN1CCCCC1)c1cc(C)nc(Nc2ccc(C)cc2C(F)(F)F)n1` the IC50 was 540 nM. `S=C(NCCc1ccc(Cl)cc1)N1CCC(CN2CCC(c3c[nH]c4ccccc34)CC2)CC1` showed an IC50 of 1000 nM. `CCC(C)CN1CCCN(c2ccc(NC(=O)c3cccs3)cc2)CC1` (stereo unspecified) gave an IC50 of 800 nM. With `CC(C)(C)N1CCC(N(Cc2ccc(-c3ccc(C(F)(F)F)cc3)cc2)C(=O)Cn2c(CCc3cccc(F)c3F)cc(=O)c3ccccc32)CC1` the IC50 was 790 nM. `CCCCCc1cc(O)c2c(c1)OC(C)(C)CC2C1=CCN(Cc2cccnc2)CC1` (stereo unspecified) showed an IC50 of 990 nM. `Cc1cccc(Nc2nc(C)cc(N3CCCN(CC4CCCCC4)CC3)n2)c1` showed an IC50 of 1120 nM. For `Cc1cccc2[nH]c(-c3cccc(-c4cccc(NC(=O)Nc5cccc(C#N)c5)c4)c3)nc12`, the IC50 was 100 nM. Work on `Cc1[nH]nc2cc(Nc3ccnc(Nc4ccc(CN5CCOCC5)cc4)n3)ccc12` yielded an IC50 of 950 nM. `CCCNCc1ccc(-c2ccc(CN(CCOC)C(=O)c3ccco3)cc2)nc1` was tested, and the IC50 was 1000 nM. `Cc1nn(CCOC(=O)NC(NCC2COc3ccccc3O2)C(Cl)(Cl)Cl)cc1[N+](=O)[O-]` (stereo unspecified) showed an IC50 of 920 nM. With `CN(C)CCCOc1ccc(CNCC(C)(C)c2nc(-c3ccc(Cl)c(O)c3)c(-c3ccncc3)[nH]2)cc1` the IC50 was 710 nM. For `CCOC(=O)C1=C(C)NC2=C(C(=O)C(C(=O)OC)C(C)C2)C1c1cc(Br)c(OCC)c(OC)c1` (stereo unspecified), the IC50 was 700 nM. `CC(C)C[C@H](NC(=O)c1cc2ccccc2s1)C(=O)N[C@H]1CCN(Cc2ccc(OCCN3CCNCC3)c3ccccc23)C1` showed an IC50 of 1420 nM. `Cc1cccc(NC(=O)NCc2ccccc2)n1` showed an IC50 of 940 nM. With `CCCOc1ccc(-c2nonc2NC(=O)c2cccc(OC)c2)cc1OCCC` the IC50 was 1150 nM. `Cc1noc(C)c1C(=O)N1CCCC(c2[nH]c3c(C)cccc3c2-c2ccncc2)C1` (stereo unspecified) showed an IC50 of 840 nM. For `OCC1CCN(Cc2cccc(-c3ccc(-c4nc5ccc(F)cc5[nH]4)cc3)c2)CC1`, the IC50 was 720 nM. For `Cc1cccc(Nc2nc(NCCCCN)nc3cc[nH]c(=O)c23)c1`, the IC50 was 730 nM. `Cc1ccc2[nH]c3c(NCCCN4CCOCC4)ncnc3c2c1` was tested, and the IC50 was 940 nM. `C=C[C@H]1CN(CCCCCCC)CC[C@H]1C[C@@H](Cc1ccnc2ccc(OC)cc12)OC(=O)[C@](OC)(c1ccccc1)C(F)(F)F` showed an IC50 of 880 nM. `COc1ccc(CN2CCN(C(=O)c3cccs3)CC2)c(O)c1` was tested, and the IC50 was 840 nM. For `CC(Cc1ccc(NC(=O)CCCc2ccccc2)cc1)NCCc1cccc(Cl)c1` (stereo unspecified), the IC50 was 950 nM. `CC(C)CNCc1ccc(-c2cccc(CN(CCCN3CCN(C)CC3)C(=O)/C=C/c3ccccc3)c2)cc1` gave an IC50 of 870 nM. `O=C(/C=C/c1ccc(Cl)c(Cl)c1)N1CCC(CN2CCC(c3nc4ccccc4n3CCCO)CC2)CC1` showed an IC50 of 840 nM. `CN(C)CCOc1ccc2c(=O)cc(CCc3cccc(F)c3F)n(CC(=O)N(C)Cc3ccc(-c4ccc(C(F)(F)F)cc4)cc3)c2c1` was tested, and the IC50 was 1200 nM. With `CC(=O)Nc1ncc(C(=O)Nc2cccc(-c3cccc(-c4nc5ccccc5[nH]4)c3)c2)s1` the IC50 was 810 nM. For `NCC(=O)Nc1cccc(Nc2nccc(-c3c(-c4cccc(NC(=O)c5ccccc5)c4)nn4ccccc34)n2)c1`, the IC50 was 430 nM. Molecule `CCOc1ccc(C(=O)Nc2cc(Br)c3c(c2)CNCC3)cc1C(F)(F)F` has an IC50 of 940 nM. `COc1ccc(C(=O)Nc2ccc3nc(N4CCCCC4)cc(C)c3c2)cc1OC` gave an IC50 of 990 nM. `CCOCCCn1c(=N)c(C(=O)NCc2ccc(F)cc2)cc2c(=O)n3cccc(C)c3nc21` gave an IC50 of 530 nM. `c1cc(CNCCc2ccncc2)cc(-c2csc(-c3nc4ccccc4[nH]3)c2)c1` showed an IC50 of 260 nM. `CCOc1ccccc1CNc1nccc(NCCc2cn(C)c3ccccc23)n1` was tested, and the IC50 was 1260 nM.
